Counter-ions that a name gives are not always drawn.
Molecular target: PR8M2-S (A27V/N31S reverse mutant of PR8 M2) (Influenza A virus, UniProt P06821, A27V/N31S)
Format: biochemical
Conditions: pH 5.2

SMILES | effect on proton channel function of PR8M2-S
CC(CCc1ccccc1)NC(C)C(O)c1ccc(O)cc1 (centres unmarked) [Nylidrin, nylidrin] | no effect
NC12CC3CC(CC(C3)C1)C2 [AMT, amantadine hydrochloride] | inhibited

From paper PMC7290441 (Viruses, 2020)
